Measured values taken from ChEMBL document CHEMBL3390836, “Mannich- and LedererManasse-based analogues of the natural product S-(+)-curcuphenol as cancer proliferation and migration inhibitors” (Medchemcomm, 2012).

How the values were obtained:
[1] = system: MDA-MB-468; test: Cytotoxicity against human MDA-MB-468 cells assessed as cell growth at 10 uM after 48 hrs by SRB assay relative to control; type: functional; details: MDA-MB-468, 48 h, read-out: Activity
[2] = system: T47D; test: Cytotoxicity against human T47D cells assessed as cell growth at 10 uM after 48 hrs by SRB assay relative to control; type: functional; details: read-out: Activity
[3] = Cytotoxicity against human Hs 578T cells assessed as cell growth at 10 uM after 48 hrs by SRB assay relative to control; type: functional; details: read-out: Activity
[4] = system: MDA-MB-231; test: Cytotoxicity against human MDA-MB-231 cells assessed as cell growth at 10 uM after 48 hrs by SRB assay relative to control; type: functional; details: MDA-MB-231, 48 h, read-out: Activity
[5] = system: TK-10; test: Cytotoxicity against human TK10 cells assessed as cell growth at 10 uM after 48 hrs by SRB assay relative to control; type: functional; details: TK-10, 48 h, read-out: Activity
[6] = system: SN12C; test: Cytotoxicity against human SN12C cells assessed as cell growth at 10 uM after 48 hrs by SRB assay relative to control; type: functional; details: read-out: Activity
[7] = system: RXF 393; test: Cytotoxicity against human RXF393 cells assessed as cell growth at 10 uM after 48 hrs by SRB assay relative to control; type: functional; details: RXF 393, 48 h, read-out: Activity
[8] = system: CAKI-1; test: Cytotoxicity against human Caki1 cells assessed as cell growth at 10 uM after 48 hrs by SRB assay relative to control; type: functional; details: CAKI-1, 48 h, read-out: Activity
[9] = system: 786-0; test: Cytotoxicity against human 786-0 cells assessed as cell growth at 10 uM after 48 hrs by SRB assay relative to control; type: functional; details: 786-0, 48 h, read-out: Activity
[10] = system: A498; test: Cytotoxicity against human A498 cells assessed as cell growth at 10 uM after 48 hrs by SRB assay relative to control; type: functional; details: A498, 48 h, read-out: Activity
[11] = Cytotoxicity against human SKOV3 cells assessed as cell growth at 10 uM after 48 hrs by SRB assay relative to control; type: functional; details: SK-OV-3, 48 h, read-out: Activity
[12] = Cytotoxicity against human NCI-ADR-RES cells assessed as cell growth at 10 uM after 48 hrs by SRB assay relative to control; type: functional; details: read-out: Activity
[13] = Cytotoxicity against human OVCAR4 cells assessed as cell growth at 10 uM after 48 hrs by SRB assay relative to control; type: functional; details: OVCAR-4, 48 h, read-out: Activity
[14] = Cytotoxicity against human OVCAR3 cells assessed as cell growth at 10 uM after 48 hrs by SRB assay relative to control; type: functional; details: OVCAR-3, 48 h, read-out: Activity
[15] = Cytotoxicity against human UACC62 cells assessed as cell growth at 10 uM after 48 hrs by SRB assay relative to control; type: functional; details: UACC-62, 48 h, read-out: Activity
[16] = system: SK-MEL-5; test: Cytotoxicity against human SK-MEL-5 cells assessed as cell growth at 10 uM after 48 hrs by SRB assay relative to control; type: functional; details: SK-MEL-5, 48 h, read-out: Activity
[17] = system: SK-MEL-28; test: Cytotoxicity against human SK-MEL-28 cells assessed as cell growth at 10 uM after 48 hrs by SRB assay relative to control; type: functional; details: SK-MEL-28, 48 h, read-out: Activity
[18] = system: SK-MEL-2; test: Cytotoxicity against human SK-MEL-2 cells assessed as cell growth at 10 uM after 48 hrs by SRB assay relative to control; type: functional; details: SK-MEL-2, 48 h, read-out: Activity
[19] = system: MDA-MB-435; test: Cytotoxicity against human MDA-MB-435 cells assessed as cell growth at 10 uM after 48 hrs by SRB assay relative to control; type: functional; details: MDA-MB-435, 48 h, read-out: Activity
[20] = system: U-251; test: Cytotoxicity against human U251 cells assessed as cell growth at 10 uM after 48 hrs by SRB assay relative to control; type: functional; details: U-251, 48 h, read-out: Activity
[21] = system: LOX IMVI; test: Cytotoxicity against human LOXIMVI cells assessed as cell growth at 10 uM after 48 hrs by SRB assay relative to control; type: functional; details: read-out: Activity
[22] = system: SNB-75; test: Cytotoxicity against human SNB75 cells assessed as cell growth at 10 uM after 48 hrs by SRB assay relative to control; type: functional; details: SNB-75, 48 h, read-out: Activity
[23] = system: SNB-19; test: Cytotoxicity against human SNB19 cells assessed as cell growth at 10 uM after 48 hrs by SRB assay relative to control; type: functional; details: SNB-19, 48 h, read-out: Activity
[24] = system: SW-620; test: Cytotoxicity against human SW620 cells assessed as cell growth at 10 uM after 48 hrs by SRB assay relative to control; type: functional; details: SW-620, 48 h, read-out: Activity
[25] = Cytotoxicity against human HCT15 cells assessed as cell growth at 10 uM after 48 hrs by SRB assay relative to control; type: functional; details: HCT-15, 48 h, read-out: Activity
[26] = system: HCC 2998; test: Cytotoxicity against human HCC2998 cells assessed as cell growth at 10 uM after 48 hrs by SRB assay relative to control; type: functional; details: HCC 2998, 48 h, read-out: Activity
[27] = Cytotoxicity against human HCT116 cells assessed as cell growth at 10 uM after 48 hrs by SRB assay relative to control; type: functional; details: HCT-116, 48 h, read-out: Activity
[28] = system: COLO 205; test: Cytotoxicity against human COLO205 cells assessed as cell growth at 10 uM after 48 hrs by SRB assay relative to control; type: functional; details: COLO 205, 48 h, read-out: Activity
[29] = system: NCI-H322M; test: Cytotoxicity against human NCI-H322M cells assessed as cell growth at 10 uM after 48 hrs by SRB assay relative to control; type: functional; details: read-out: Activity
[30] = system: NCI-H460; test: Cytotoxicity against human NCI-H460 cells assessed as cell growth at 10 uM after 48 hrs by SRB assay relative to control; type: functional; details: NCI-H460, 48 h, read-out: Activity
[31] = system: NCI-H226; test: Cytotoxicity against human NCI-H226 cells assessed as cell growth at 10 uM after 48 hrs by SRB assay relative to control; type: functional; details: NCI-H226, 48 h, read-out: Activity
[32] = system: HOP-62; test: Cytotoxicity against human HOP62 cells assessed as cell growth at 10 uM after 48 hrs by SRB assay relative to control; type: functional; details: HOP-62, 48 h, read-out: Activity
[33] = system: K562; test: Cytotoxicity against human K562 cells assessed as cell growth at 10 uM after 48 hrs by SRB assay relative to control; type: functional; details: K562, 48 h, read-out: Activity
[34] = system: HL-60(TB); test: Cytotoxicity against human HL-60(TB) cells assessed as cell growth at 10 uM after 48 hrs by SRB assay relative to control; type: functional; details: HL-60, 48 h, read-out: Activity
[35] = system: MDA-MB-231; test: Growth inhibition of human MDA-MB-231 cells after 72 hrs by MTT assay; type: functional, cell-based; details: MDA-MB-231, 72 h

SMILES | growth at 10 µM [1] | growth at 10 µM [2] | growth at 10 µM [3] | growth at 10 µM [4] | growth at 10 µM [5] | growth at 10 µM [6] | growth at 10 µM [7] | growth at 10 µM [8] | growth at 10 µM [9] | growth at 10 µM [10] | growth at 10 µM [11] | growth at 10 µM [12] | growth at 10 µM [13] | growth at 10 µM [14] | growth at 10 µM [15] | growth at 10 µM [16] | growth at 10 µM [17] | growth at 10 µM [18] | growth at 10 µM [19] | growth at 10 µM [20] | further results
CC(C)=CCC[C@H](C)c1ccc(C)c(CO)c1O | 93.5% | 72.2% | 104% | 109% | 103% | 91.3% | 92.3% | 112% | 80.1% | 97.4% | 122% | 97.1% | 90.7% | 91.1% | 90.4% | 85.1% | 134% | 102% | 108% | 98.8% | growth at 10 µM [21]: 103%; growth at 10 µM [22]: 83.4%; growth at 10 µM [23]: 101%; growth at 10 µM [24]: 118%; growth at 10 µM [25]: 109%; growth at 10 µM [26]: 102%; growth at 10 µM [27]: 91.3%; growth at 10 µM [28]: 125%; growth at 10 µM [29]: 109%; growth at 10 µM [30]: 108%; growth at 10 µM [31]: 112%; growth at 10 µM [32]: 99.8%; growth at 10 µM [33]: 101%; growth at 10 µM [34]: 95.7%; IC50 [35]: 22.2 µM
CC(C)=CCC[C@H](C)c1ccc(C)cc1O | 95.7% | 111% | 114% | 97.1% | 110% | 105% | 103% | 107% | 79.9% | 87.8% | 119% | 99% | 100% | 96.3% | 100% | 97.5% | 119% | 147% | 100% | 103% | growth at 10 µM [21]: 107%; growth at 10 µM [22]: 94.3%; growth at 10 µM [23]: 98.5%; growth at 10 µM [24]: 114%; growth at 10 µM [25]: 109%; growth at 10 µM [26]: 99.5%; growth at 10 µM [27]: 97.3%; growth at 10 µM [28]: 117%; growth at 10 µM [29]: 113%; growth at 10 µM [30]: 107%; growth at 10 µM [31]: 107%; growth at 10 µM [32]: 102%; growth at 10 µM [33]: 93%; growth at 10 µM [34]: 85.7%; IC50 [35]: > 50 µM
